The values below come from patent US20100144760A1, “NOVEL COMPOUNDS” (priority 2008, published 2010).

One assay deals with T1, human Orexin-1 receptor (Homo sapiens, UniProt O43613).
T1 sequence (O43613 1-425 A280G): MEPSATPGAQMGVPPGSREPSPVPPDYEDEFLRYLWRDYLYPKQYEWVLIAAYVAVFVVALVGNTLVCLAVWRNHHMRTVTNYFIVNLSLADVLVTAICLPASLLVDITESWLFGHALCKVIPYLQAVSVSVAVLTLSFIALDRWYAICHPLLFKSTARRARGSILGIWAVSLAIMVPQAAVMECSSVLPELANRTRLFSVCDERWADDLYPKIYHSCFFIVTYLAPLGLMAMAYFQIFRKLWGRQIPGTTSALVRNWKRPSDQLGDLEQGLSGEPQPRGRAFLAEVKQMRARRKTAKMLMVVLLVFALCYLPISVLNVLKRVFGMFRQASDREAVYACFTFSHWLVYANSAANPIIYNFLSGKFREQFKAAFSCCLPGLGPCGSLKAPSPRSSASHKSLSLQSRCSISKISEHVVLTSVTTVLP
Put plainly: Antagonist affinity at human Orexin-1 receptor using FLIPR ([Ca2+]i). Type of assay: cell-based. The settings on record: functional pKi from IC50 by modified Cheng-Prusoff correction. The source says: (§1) Determination of antagonist affinity at human Orexin-1 and 2 receptors using FLIPR
(§2) Adherent Chinese Hamster Ovary (CHO) cells, stably expressing the recombinant human Orexin-1 or human Orexin-2 receptors or Rat Basophilic Leukaemia Cells (RBL) stably expressing recombinant rat Orexin-1 or rat Orexin-2 receptors were maintained in culture in Alpha Minimum Essential Medium (Gibco/Invitrogen, cat. no.; 22571-020), supplemented with 10% decomplemented foetal bovine serum (Life Technologies, cat. no. 10106-078) and 400 μg/mL Geneticin G418 (Calbiochem, cat. no. 345810). Cells were grown as monolayers under 95%:5% air: CO2 at 37° C.
(§3) The sequences of the human orexin 1, human orexin 2, rat orexin 1 and rat orexin 2 receptors used in this example were as published in Sakurai, T. et al (1998) Cell, 92 pp 573 to 585. Some examples were tested against the human orexin 1 receptor as published in Sakurai et al supra with the exception that the amino acid residue at position 280 was alanine and not glycine.
(§4) Cells were seeded into black clear-bottom 384-well plates (density of 20,000 cells per well) in culture medium as described above and maintained overnight (95%:5% air:CO2 at 37° C.). On the day of the experiment, culture medium were discarded and the cells washed three times with standard buffer (NaCl, 145 mM; KCl, 5 mM; HEPES, 20 mM; Glucose, 5.5 mM; MgCl2, 1 mM; CaCl2, 2 mM) added with Probenecid 2.5 mM. The plates were then incubated at 37° C. for 60 minutes in the dark with 2 μM FLUO-4AM dye to allow cell uptake of the FLUO-4AM, which is subsequently converted by intracellular esterases to FLUO-4, which is unable to leave the cells. After incubation, cells were washed three times with standard buffer to remove extracellular dye and 30 μL of buffer were left in each well after washing.
(§5) Compounds of the invention were tested in a final assay concentration range from 1.66×10^−5M to 1.58×10^−11M. Compounds of the invention were dissolved in dimethylsulfoxide (DMSO) at a stock concentration of 10 mM. These stock solutions were serially diluted with DMSO and 1 μL of each dilution was transferred to a 384 well compound plate. Immediately before introducing compound to the cells, buffer solution (50 μl/well) was added to this plate. To allow agonist stimulation of the cells, a stock plate containing a solution of human orexin A (hOrexin A) was diluted with buffer to final concentration just before use. This final concentration of hOrexin A was equivalent to the calculated EC80 for hOrexinA agonist potency in this test system. This value was obtained by testing hOrexinA in concentration response curve (at least 16 replicates) the same day of the experiment.
(§6) The loaded cells were then incubated for 10 min at 37° C. with test compound. The plates were then placed into a FLIPR™ (Molecular Devices, UK) to monitor cell fluorescence (λex=488 nm, λEM=540 nm) (Sullivan E, Tucker E M, Dale I L. Measurement of [Ca^2+]i using the fluometric imaging plate reader (FLIPR). In: Lambert DG (ed.), Calcium Signaling Protocols. New Jersey: Humana Press, 1999, 125-136). A baseline fluorescence reading was taken over a 5 to 10 second period, and then 10 μL of EC80 hOrexinA solution was added. The fluorescence was then read over a […] period.
Functional responses using FLIPR were measured as peak fluorescence intensity minus basal fluorescence and expressed as a percentage of a non-inhibited Orexin-A-induced response on the same plate. Iterative curve-fitting and parameter estimations were carried out using a four parameter logistic model and Microsoft Excel (Bowen W P, Jerman J C. Nonlinear regression using spreadsheets. Trends Pharmacol. Sci. 1995; 16: 413-417). […]

The target of the next assay is T2, human Orexin-2 receptor (Homo sapiens, UniProt O43614).
T2 construct: expressed in transfected cells
T2 sequence (O43614 1-444): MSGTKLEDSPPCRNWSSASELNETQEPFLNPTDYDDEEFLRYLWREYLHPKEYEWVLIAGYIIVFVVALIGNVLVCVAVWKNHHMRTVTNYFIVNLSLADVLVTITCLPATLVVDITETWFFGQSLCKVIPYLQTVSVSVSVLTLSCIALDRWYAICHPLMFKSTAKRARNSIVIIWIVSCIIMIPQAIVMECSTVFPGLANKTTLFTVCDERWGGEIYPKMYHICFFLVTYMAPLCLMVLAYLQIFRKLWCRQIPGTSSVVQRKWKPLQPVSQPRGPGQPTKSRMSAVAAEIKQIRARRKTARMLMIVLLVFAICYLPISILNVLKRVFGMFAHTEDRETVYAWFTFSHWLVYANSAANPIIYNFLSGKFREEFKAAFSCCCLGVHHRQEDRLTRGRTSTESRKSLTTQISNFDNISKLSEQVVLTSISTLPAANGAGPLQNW
Put plainly: Antagonist affinity at human Orexin-2 receptor using FLIPR ([Ca2+]i). Type of assay: cell-based. As to conditions: functional pKi from IC50 by modified Cheng-Prusoff correction, read-out: fpKi Orexin 2 receptor (converted).
Text: as §1, §2, §3, §4, §5, §6
Functional responses using FLIPR were measured as peak fluorescence intensity minus basal fluorescence and expressed as a percentage of a non-inhibited Orexin-A-induced response on the same plate. Iterative curve-fitting and parameter estimations were carried out using a four parameter logistic model and Microsoft Excel (Bowen W P, Jerman J C. Nonlinear regression using spreadsheets. Trends Pharmacol. Sci. 1995; 16: 413-417).

Another assay relates to freely-feeding rats. As to conditions: central administration, 4 hour time period; cited from earlier work.
Assay [1] deals with rats. The settings on record: central administration at the onset of the normal sleep period; cited from earlier work.
Assay [2] has as its system rats. The settings on record: cited from earlier work.
Assay [3] relates to rats. The settings on record: cited from earlier work. This is another data set of the same source.

Ends that are not written are not given here.

As for `CCCOc1ccc(C)nc1C(=O)N1C[C@@H]2C[C@@H]2C[C@H]1CNc1ncc(C(F)(F)F)cn1` [Example 57, N-[((1R,4S,6R)-3-{[6-methyl-3-(propyloxy)-2-pyridinyl]carbonyl}-3-azabicyclo[4.1.0]hept-4-yl)methyl]-5-(trifluoromethyl)-2-pyrimidinamine], on human Orexin-1 receptor, the “fpKi Orexin 1 receptor” value is 9.5. The Ki at human Orexin-2 receptor was 63.1 nM.

Consider `Cc1ccc(C(=O)N2C[C@@H]3C[C@@H]3C[C@H]2CNc2ccc(C(F)(F)F)cn2)nc1-c1ncccn1` [Example 53, N-[((1R,4S,6R)-3-{[5-methyl-6-(2-pyrimidinyl)-2-pyridinyl]carbonyl}-3-azabicyclo[4.1.0]hept-4-yl)methyl]-5-(trifluoromethyl)-2-pyridinamine], for which, at human Orexin-1 receptor, the “fpKi Orexin 1 receptor” value is recorded as 6.0. Moreover, at human Orexin-2 receptor, the Ki was more than 3310 nM.

With `Cc1cnn(-c2ccc(C)nc2C(=O)N2C[C@@H]3C[C@@H]3C[C@H]2CNc2ccc(C(F)(F)F)cn2)c1` [Example 52, N-[((1R,4S,6R)-3-{[6-methyl-3-(4-methyl-1H-pyrazol-1-yl)-2-pyridinyl]carbonyl}-3-azabicyclo[4.1.0]hept-4-yl)methyl]-5-(trifluoromethyl)-2-pyridinamine], the “fpKi Orexin 1 receptor” value on human Orexin-1 receptor was 9.2. Moreover, the Ki on human Orexin-2 receptor was 0.398 nM.

Consider `CCOc1ccc(C)nc1C(=O)N1C[C@@H]2C[C@@H]2C[C@H]1CNc1ncc(C(F)(F)F)cn1` [Example 56, N-[((1R,4S,6R)-3-{[3-(ethyloxy)-6-methyl-2-pyridinyl]carbonyl}-3-azabicyclo[4.1.0]hept-4-yl)methyl]-5-(trifluoromethyl)-2-pyrimidinamine], for which the “fpKi Orexin 1 receptor” value at human Orexin-1 receptor was 9.5.

With “orexin-A: polypeptide ligand for the orexin-1 receptor; an agonist of the orexin receptors (QPLPDCCRQKTCSCRLYELLHGAGNHAAGILTL; ends and bridges not checked; cysteine pairing not given here; UniProt O43612 34-66, looked up)”, the “increase of food intake over control rats receiving vehicle” value in the assay on freely-feeding rats is listed as “approximately four-fold”. For the same molecule, the “arousal (sleep/EEG)” value in the assay with rats [1] was “dose-related increase in arousal”.

As to `CCCOc1ccc(C)nc1C(=O)N1C[C@@H]2C[C@@H]2C[C@H]1CNc1cnc(C)c(C)n1` [Example 58, 5,6-dimethyl-N-[((1R,4S,6R)-3-{[6-methyl-3-(propyloxy)-2-pyridinyl]carbonyl}-3-azabicyclo[4.1.0]hept-4-yl)methyl]-2-pyrazinamine], at human Orexin-1 receptor, the “fpKi Orexin 1 receptor” value is 9.0. Further, on human Orexin-2 receptor, the Ki was 1.26 nM.

In the case of `Cc1nc2ccc(NC(=O)Nc3ccnc4cccnc34)cc2o1` [SB334867], the high-fat pellet self-administration result in the assay on rats [2] was “attenuated”. For the same molecule, in the assay on rats [3], the hedonic eating result is reported as “potently reduced”.

Take `Cc1ccc(-c2ncccc2C)c(C(=O)N2C[C@@H]3C[C@@H]3C[C@H]2CNc2ccc(C(F)(F)F)cn2)n1` [Example 51, N-({(1R,4S,6R)-3-[(3,6′-dimethyl-2,3′-bipyridin-2′-yl)carbonyl]-3-azabicyclo[4.1.0]hept-4-yl}methyl)-5-(trifluoromethyl)-2-pyridinamine]: the “fpKi Orexin 1 receptor” value on human Orexin-1 receptor came to 9.2. For the same molecule, the Ki on human Orexin-2 receptor was 15.8 nM.

With `Cc1coc(-c2ccc(C)nc2C(=O)N2C[C@@H]3C[C@@H]3C[C@H]2CNc2ncc(C(F)(F)F)cn2)n1` [Example 59, N-[((1R,4S,6R)-3-{[6-methyl-3-(4-methyl-1,3-oxazol-2-yl)-2-pyridinyl]carbonyl}-3-azabicyclo[4.1.0]hept-4-yl)methyl]-5-(trifluoromethyl)-2-pyrimidinamine], the “fpKi Orexin 1 receptor” value at human Orexin-1 receptor came out at 6.0. Moreover, the Ki on human Orexin-2 receptor was 1580 nM.

Regarding `CCOc1ccc(C)nc1C(=O)N1C[C@@H]2C[C@@H]2C[C@H]1CNc1ncc(C)cn1` [Example 55, N-[((1R,4S,6R)-3-{[3-(ethyloxy)-6-methyl-2-pyridinyl]carbonyl}-3-azabicyclo[4.1.0]hept-4-yl)methyl]-5-methyl-2-pyrimidinamine], at human Orexin-1 receptor, the “fpKi Orexin 1 receptor” value amounted to 9.1. The Ki on human Orexin-2 receptor was 100 nM.

`Cc1ccc(NC[C@@H]2C[C@H]3C[C@H]3CN2C(=O)c2nc(C)ccc2OCC2CC2)nc1` [Example 54, N-{[(1R,4S,6R)-3-({3-[(cyclopropylmethyl)oxy]-6-methyl-2-pyridinyl}carbonyl)-3-azabicyclo[4.1.0]hept-4-yl]methyl}-5-methyl-2-pyridinamine]: the “fpKi Orexin 1 receptor” value at human Orexin-1 receptor is 9.3. In addition, the Ki on human Orexin-2 receptor was 3.98 nM.
